The values below come from patent US8420657B2 (Novartis AG, priority 2008, dated 2013).

Where only a bound is given, the exact number is not on record here.

For test [1], the system named is JAK1/JAK2-dependent nuclear translocation of STAT1-GFP in HT1080 fibrosarcoma cells. In words: STAT1 nuclear translocation assay (Cellomics), IFN-γ stimulated HT1080 STAT1-GFP cells. Type of test: cell-based. The following applies: Homo sapiens, HT-1080, STAT1 translocation pathway. A digest of the protocol:
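HT1080 cells stably expressing STAT1-GFP, pre-treated 30 min with compound (10 μM–0.003 μM, 0.1% DMSO), then stimulated 2 h with 100 ng/ml IFN-γ, fixed and Hoechst-stained. Nuclear-cytoplasmic GFP differential imaged over ≥1000 cells/well, normalised to unstimulated and DMSO-stimulated wells for IC50.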

Test [2] deals with T1, GST-JAK2(808-1132) (Homo sapiens, UniProt O60674).
T1 construct: GST-JAK2(808-1132); purchased Invitrogen (Carlsbad, USA) #4288
In words: JAK2 kinase assay (Caliper mobility shift, LabChip 3000). The format is biochemical. The gist of the method:
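Recombinant GST-JAK2(808-1132) kinase domain with FITC-labelled JAK3tide peptide substrate and ATP; 60 min at 30 °C, EDTA stop. Substrate/product ratio read by microfluidic mobility shift; compounds at 8 final concentrations, 10 to 0.003 μM.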

T1 sequence (O60674 808-1132): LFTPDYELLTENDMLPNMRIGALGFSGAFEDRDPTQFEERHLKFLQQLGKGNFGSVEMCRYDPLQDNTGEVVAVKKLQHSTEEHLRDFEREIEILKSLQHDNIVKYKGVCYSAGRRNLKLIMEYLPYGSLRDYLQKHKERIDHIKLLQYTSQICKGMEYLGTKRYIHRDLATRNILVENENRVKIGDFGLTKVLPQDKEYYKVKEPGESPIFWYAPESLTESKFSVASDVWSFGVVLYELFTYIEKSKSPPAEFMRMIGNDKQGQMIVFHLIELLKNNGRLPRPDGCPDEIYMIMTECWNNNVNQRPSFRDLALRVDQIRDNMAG

Take `Cc1ccc(Nc2ncc3ccn(-c4ccc(C5(C(=O)N6CCN(C)CC6)CC5)cc4)c3n2)cc1Cl` [Example 117, (1-{4-[2-(3-Chloro-4-methyl-phenylamino)-pyrrolo[2,3-d]pyrimidin-7-yl]-phenyl}-cyclopropyl)-(4-methyl-piperazin-1-yl)-methanone]: the figures for the IC50 in test [1] and in test [2] were 384 nM and 9.4 nM, respectively.
Turning to `Cc1ccc(Nc2ncc3ccn(-c4cc(F)c(CN5CCOCC5)c(F)c4)c3n2)cc1CN1CCNC(=O)C1` [Example 334, 4-{5-[7-(3,5-Difluoro-4-morpholin-4-ylmethyl-phenyl)-7H-pyrrolo[2,3-d]pyrimidin-2-ylamino]-2-methyl-benzyl}-piperazin-2-one], the IC50 in test [1] was 260 nM; in test [2] it was not above 3 nM.
For `O=C(c1ccc(Nc2ncc3ccn(-c4cc(F)c(CN5CCOCC5)c(F)c4)c3n2)cn1)N1CCOCC1` [Example 195, {5-[7-(3,5-Difluoro-4-morpholin-4-ylmethyl-phenyl)-7H-pyrrolo[2,3-d]pyrimidin-2-ylamino]-pyridin-2-yl}-morpholin-4-yl-methanone], the IC50 in test [1] was found to be 352 nM; in test [2] it was 5.3 nM.
Consider `CS(=O)(=O)c1ccc(-n2ccc3cnc(Nc4ccc(F)c(C(=O)N5CCOCC5)c4)nc32)cc1` [Example 77, {2-Fluoro-5-[7-(4-methanesulfonyl-phenyl)-7H-pyrrolo[2,3-d]pyrimidin-2-ylamino]-phenyl}-morpholin-4-yl-methanone], for which the results for the IC50 in test [1] and in test [2] were 2620 nM and 38 nM, respectively.
As for `CN(C)CCN(C(=O)c1cccc(Nc2ncc3ccn(-c4ccc(S(C)(=O)=O)cc4)c3n2)c1)c1ccccc1` [Example 48, N-(2-Dimethylamino-ethyl)-3-[7-(4-methanesulfonyl-phenyl)-7H-pyrrolo[2,3-d]pyrimidin-2-ylamino]-N-phenyl-benzamide], the IC50 turned out to be 4210 nM in test [1] and 27 nM in test [2].
Take `Cc1ccc(Nc2ncc3ccn(-c4ccc(C(=O)N5CCOCC5)c(F)c4)c3n2)cn1` [Example 223]: the concentration for half-maximal inhibition (IC50) turned out to be 455 nM in test [1] and 9.2 nM in test [2].
As for `Cc1cc(Nc2ncc3ccn(-c4ccc(CN5CCS(=O)(=O)CC5)c(F)c4)c3n2)ccc1F` [Example 125, {7-[4-(1,1-Dioxido-thiomorpholin-4-ylmethyl)-3-fluoro-phenyl]-7H-pyrrolo[2,3-d]pyrimidin-2-yl}-(4-fluoro-3-methyl-phenyl)-amine], the IC50 in test [1] was 120 nM; in test [2], less than 3 nM.
For `CCOc1ccc(Nc2ncc3cc(C)n(-c4ccc(C(=O)N5CCOCC5)c(F)c4)c3n2)cc1OCC` [Example 287, {4-[2-(3,4-Diethoxy-phenylamino)-6-methyl-pyrrolo[2,3-d]pyrimidin-7-yl]-2-fluoro-phenyl}-morpholin-4-yl-methanone], the IC50 in test [1] was 441 nM; in test [2], 46.5 nM.
In the case of `Cc1ccc(Nc2ncc3ccn(-c4ccc(C(=O)N5CCOCC5)c(F)c4)c3n2)cc1C` [Example 152, {4-[2-(3,4-Dimethyl-phenylamino)-pyrrolo[2,3-d]pyrimidin-7-yl]-2-fluoro-phenyl}-morpholin-4-yl-methanone], the concentration for half-maximal inhibition (IC50) in test [1] was determined as 168 nM; in test [2] it was 3.5 nM.
On to `Cc1ccc(Nc2ncc3ccn(-c4ccc(CN5CCOCC5)cc4)c3n2)cc1Cl` [Example 119, (3-Chloro-4-methyl-phenyl)-[7-(4-morpholin-4-ylmethyl-phenyl)-7H-pyrrolo[2,3-d]pyrimidin-2-yl]-amine], for which the values for the 50% inhibitory concentration (IC50) in test [1] and in test [2] were 1760 nM and 88 nM, respectively.
Taken in the same sequence, the figures for `Cc1cc(Nc2ncc3ccn(-c4ccc(C(=O)N5CCOCC5)c(C)c4)c3n2)ccc1F` [Example 91, {4-[2-(4-Fluoro-3-methyl-phenylamino)-pyrrolo[2,3-d]pyrimidin-7-yl]-2-methyl-phenyl}-morpholin-4-yl-methanone] were 435 nM and less than 3 nM.
With `Cc1ccc(Nc2ncc3ccn(-c4ccc(C(=O)N5CCOCC5)c(F)c4)c3n2)cc1CN1CCNCC1` [Example 336, {2-Fluoro-4-[2-(4-methyl-3-piperazin-1-ylmethyl-phenylamino)-pyrrolo[2,3-d]pyrimidin-7-yl]-phenyl}-morpholin-4-yl-methanone], the IC50 was determined as 205 nM in test [1] and 3.6 nM in test [2].
For `Cc1ccc(Nc2ncc3ccn(-c4ccc(C(=O)N5CCC(N(C)C)CC5)c(F)c4)c3n2)cc1C` [Example 299, (4-Dimethylamino-piperidin-1-yl)-{4-[2-(3,4-dimethyl-phenylamino)-pyrrolo[2,3-d]pyrimidin-7-yl]-2-fluoro-phenyl}-methanone] the same measures were 145 nM and 18.5 nM.
For the compound `COCCn1cc(Nc2ncc3ccn(-c4cc(F)c(C(=O)N5CCOCC5)c(F)c4)c3n2)cn1` [Example 251, (2,6-Difluoro-4-{2-[1-(2-methoxy-ethyl)-1H-pyrazol-4-ylamino]-pyrrolo[2,3-d]pyrimidin-7-yl}-phenyl)-morpholin-4-yl-methanone], the half-inhibitory concentration (IC50) is 450 nM in test [1] and 6.1 nM in test [2].
On to `C[C@@H]1CN(c2ccc(Nc3ncc4ccn(-c5ccc(S(C)(=O)=O)cc5)c4n3)cn2)C[C@H](C)N1` [Example 273, [6-(cis-3,5-Dimethyl-piperazin-1-yl)-pyridin-3-yl]-[7-(4-methanesulfonyl-phenyl)-7H-pyrrolo[2,3-d]pyrimidin-2-yl]-amine], for which the IC50 in test [1] came out at 190 nM; in test [2], 6 nM.
Consider `Cc1cc(Nc2ncc3ccn(-c4ccc(S(C)(=O)=O)cc4)c3n2)ccc1C(=O)N1CCOCC1` [Example 74, {4-[7-(4-Methanesulfonyl-phenyl)-7H-pyrrolo[2,3-d]pyrimidin-2-ylamino]-2-methyl-phenyl}-morpholin-4-yl-methanone], for which the half-inhibitory concentration (IC50) in test [1] was 75.5 nM; in test [2] it was less than 3 nM.
Taken in the same sequence, the figures for `C[C@@H]1CN(c2ccc(Nc3ncc4ccn(-c5cc(F)c(CN6CCNC(=O)C6)c(F)c5)c4n3)cn2)C[C@H](C)N1` [Example 342, 4-(4-{2-[6-(cis-3,5-Dimethyl-piperazin-1-yl)-pyridin-3-ylamino]-pyrrolo[2,3-d]pyrimidin-7-yl}-2,6-difluoro-benzyl)-piperazin-2-one] were 479 nM and not above 3 nM.
In the case of `CS(=O)(=O)c1ccc(-n2ccc3cnc(Nc4ccc(C5CCCN5)cc4)nc32)cc1` (stereo not drawn) [Example 53, [7-(4-Methanesulfonyl-phenyl)-7H-pyrrolo[2,3-d]pyrimidin-2-yl]-(4-pyrrolidin-2-yl-phenyl)-amine], the IC50 is 90.5 nM in test [1] and less than 3 nM in test [2].
On to `COc1ccc(Nc2ncc3ccn(-c4ccc(S(C)(=O)=O)cc4)c3n2)cc1OCCN1CCCC1` [Example 31, [7-(4-Methanesulfonyl-phenyl)-7H-pyrrolo[2,3-d]pyrimidin-2-yl]-[4-methoxy-3-(2-pyrrolidin-1-yl-ethoxy)-phenyl]-amine], for which the half-maximal inhibitory concentration (IC50) in test [1] was 46 nM; in test [2], less than 3 nM.
As to `CN1CCC(c2ccc(Nc3ncc4ccn(-c5ccc(S(C)(=O)=O)cc5)c4n3)cc2)CC1` [Example 16, [7-(4-Methanesulfonyl-phenyl)-7H-pyrrolo[2,3-d]pyrimidin-2-yl]-[4-(1-methyl-piperidin-4-yl)-phenyl]-amine], the values for the IC50 in test [1] and in test [2] were 25 nM and less than 3 nM, respectively.
As for `Cc1ccc(Nc2ncc3ccn(-c4cc(F)c(C(=O)N5CCOCC5)c(F)c4)c3n2)cc1Cl` [Example 116, {4-[2-(3-Chloro-4-methyl-phenylamino)-pyrrolo[2,3-d]pyrimidin-7-yl]-2,6-difluoro-phenyl}-morpholin-4-yl-methanone], the IC50 in test [1] came out at 563 nM; in test [2], 12.5 nM.
For `CC(C)Oc1ccc(Nc2ncc3ccn(-c4ccc(C(=O)N5CCOCC5)cc4)c3n2)cn1` [Example 232] the same measures were 1160 nM and 19 nM.
For `CN(C)CCNC(=O)c1ccc(Nc2ncc3ccn(-c4ccc(S(C)(=O)=O)cc4)c3n2)cc1` [Example 40, N-(2-Dimethylamino-ethyl)-4-[7-(4-methanesulfonyl-phenyl)-7H-pyrrolo[2,3-d]pyrimidin-2-ylamino]-benzamide] the same measures were 155 nM and less than 3 nM.
Taken in the same sequence, the figures for `O=C1CN(Cc2c(F)cc(-n3ccc4cnc(Nc5ccc(CN6CCN(C7CC7)CC6)cc5)nc43)cc2F)CCN1` [Example 340, 4-(4-{2-[4-(4-Cyclopropyl-piperazin-1-ylmethyl)-phenylamino]-pyrrolo[2,3-d]pyrimidin-7-yl}-2,6-difluoro-benzyl)-piperazin-2-one] were 270 nM and 7.2 nM.
For the compound `CC(C)Oc1ccc(Nc2ncc3ccn(-c4ccc(C5(C(=O)N6CCN(C)CC6)CC5)cc4)c3n2)cc1` [Example 103, (1-{4-[2-(4-Isopropoxy-phenylamino)-pyrrolo[2,3-d]pyrimidin-7-yl]-phenyl}-cyclopropyl)-(4-methyl-piperazin-1-yl)-methanone], the 50% inhibitory concentration (IC50) in test [1] was 220 nM; in test [2] it was less than 3 nM.
Taken in the same sequence, the figures for `O=C(c1cccc(Nc2ncc3ccn(-c4cc(F)c(CN5CCOCC5)c(F)c4)c3n2)c1)N1CCOCC1` [Example 202, {3-[7-(3 5-Difluoro-4-morpholin-4-ylmethyl-phenyl)-7H-pyrrolo[2,3-d]pyrimidin-2-ylamino]-phenyl}-morpholin-4-yl-methanone] were 198 nM and 4.5 nM.
Consider `CCN(CC)C(=O)N1CCN(c2ccc(Nc3ncc4ccn(-c5ccc(S(C)(=O)=O)cc5)c4n3)cc2)CC1` [Example 13, 4-{4-[7-(4-Methanesulfonyl-phenyl)-7H-pyrrolo[2,3-d]pyrimidin-2-ylamino]-phenyl}-piperazine-1-carboxylic acid diethylamide], for which the figures for the IC50 in test [1] and in test [2] were 32 nM and 3.8 nM, respectively.
